Where only a bound is given, the exact number is not on record here.

IC50 data for 55 molecules are collected here from patent US9675614B2, “PRMT5 inhibitors and uses thereof” (Epizyme, Inc., priority 2012, dated 2017).

Sequence of PRMT5/MEP50 (O14744 other isoform, or with tags, fused parts or gaps): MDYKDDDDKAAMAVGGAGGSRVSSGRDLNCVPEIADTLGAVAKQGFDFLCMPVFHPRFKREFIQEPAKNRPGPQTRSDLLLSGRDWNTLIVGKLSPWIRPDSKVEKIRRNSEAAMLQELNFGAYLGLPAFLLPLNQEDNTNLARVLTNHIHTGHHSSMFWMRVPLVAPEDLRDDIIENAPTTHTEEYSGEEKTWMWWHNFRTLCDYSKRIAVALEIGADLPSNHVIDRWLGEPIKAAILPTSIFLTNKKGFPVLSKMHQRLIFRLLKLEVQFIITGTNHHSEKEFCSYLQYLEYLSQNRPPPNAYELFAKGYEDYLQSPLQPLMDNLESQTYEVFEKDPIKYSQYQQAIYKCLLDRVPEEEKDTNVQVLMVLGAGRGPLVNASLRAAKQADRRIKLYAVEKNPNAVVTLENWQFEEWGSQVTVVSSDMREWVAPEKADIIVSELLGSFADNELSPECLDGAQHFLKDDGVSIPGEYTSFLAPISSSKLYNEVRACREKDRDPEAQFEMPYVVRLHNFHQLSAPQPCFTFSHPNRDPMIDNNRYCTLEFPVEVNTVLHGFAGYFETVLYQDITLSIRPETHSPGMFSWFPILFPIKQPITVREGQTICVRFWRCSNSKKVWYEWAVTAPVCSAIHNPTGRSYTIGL
Sequence of PRMT5/MEP50 (Q9BQA1 other isoform, or with tags, fused parts or gaps partner): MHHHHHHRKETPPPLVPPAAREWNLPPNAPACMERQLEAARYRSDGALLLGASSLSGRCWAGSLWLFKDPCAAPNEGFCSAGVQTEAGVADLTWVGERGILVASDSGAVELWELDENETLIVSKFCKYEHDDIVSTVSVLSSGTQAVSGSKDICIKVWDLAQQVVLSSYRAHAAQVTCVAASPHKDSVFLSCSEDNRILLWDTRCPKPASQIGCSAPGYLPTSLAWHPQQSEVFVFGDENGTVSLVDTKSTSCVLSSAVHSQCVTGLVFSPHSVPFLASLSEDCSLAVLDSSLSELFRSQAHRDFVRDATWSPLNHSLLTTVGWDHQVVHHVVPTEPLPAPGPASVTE

In this assay the target is PRMT5/MEP50 (Homo sapiens (Human), UniProt O14744). As to the kind of experiment: PRMT5 Biochemical Assay (PRMT5/MEP50 enzyme assay on peptide substrate, 3H-SAM Flashplate). As to conditions: PRMT5/MEP50 biochemical assay; read-out: Biochemical IC50. The source says:
S-adenosylmethionine (SAM), S-adenosylhomocysteine (SAH), bicine, KCl, Tween20, dimethylsulfoxide (DMSO), bovine skin gelatin (BSG), and Tris(2-carboxyethyl)phosphine hydrochloride solution (TCEP) were purchased from Sigma-Aldrich at the highest level of purity possible. ^3H-SAM was purchase from American Radiolabeled Chemicals with a specific activity of 80 Ci/mmol. 384-well streptavidin Flashplates were purchased from PerkinElmer.
Peptide representative of human histone H4 residues 1-15 was synthesized with a C-terminal linker-affinity tag motif and a C-terminal amide cap by 21st Century Biochemicals. […] The sequence was Ac-[…][K-Biot]amide (SEQ ID NO.:3).
Full-length human MEP50 (NM_024102) clone was amplified from a human testis cDNA library incorporating a 5′ sequence encoding a 6-histidine tag (MHHHHHH) (SEQ ID NO.:5) fused directly to Arg 2 of MEP50. The amplified genes were subcloned into pENTR/D/TEV (Life Technologies) and subsequently transferred by Gateway™ attL×attR recombination to pDEST8 baculvirus expression vector (Life Technologies).
Recombinant baculovirus and Baculovirus-Infected Insect Cells (BIIC) were generated according to Bac-to-Bac kit instructions (Life Technologies) and Wasilko, 2006, respectively. Protein over-expression was accomplished by infecting exponentially growing Spodoptera frugiperda (SF9) cell culture at 1.2×10^6 cell/ml with a 5000 fold dilution of BIIC stock. Infections were carried out at 27° C. for 72 hours, harvested by centrifugation, and stored at −80° C. for purification.
Flag-PRMT5/6His-MeP50 was eluted with 300 mM Imidazole in the same buffer. […] Reference: Wasilko, D. J. and S. E. Lee: “TIPS: titerless infected-cells preservation and scale-up” Bioprocess J., 5 (2006), pp. 29-32.
General Procedure for PRMT5/MEP50 Enzyme Assays on Peptide Substrates.
The assays were all performed in a buffer consisting of 20 mM Bicine (pH=7.6), 1 mM TCEP, 0.005% BSG, and 0.002% Tween20, prepared on the day of use. Compounds in 100% DMSO (1 ul) were spotted into a polypropylene 384-well V-bottom plates (Greiner) using a Platemate Plus outfitted with a 384-channel head (Thermo Scientific). DMSO (1 ul) was added to Columns 11, 12, 23, 24, rows A-H for the maximum signal control and 1 ul of SAH, a known product and inhibitor of PRMT5/MEP50, was added to columns 11, 12, 23, 24, rows I-P for the minimum signal control. A cocktail (40 ul) containing the PRMT5/MEP50 enzyme and the peptide was added by Multidrop Combi (Thermo-Fisher). The compounds were allowed to incubate with PRMT5/MEP50 for 30 min at 25 degrees Celsius, then a cocktail (10 ul) containing ^3H-SAM was added to initiate the reaction (final volume=51 ul). The final concentrations of the components were as follows: PRMT5/MEP50 was 4 nM, ^3H-SAM was 75 nM, peptide was 40 nM, SAH in the minimum signal control wells was 100 uM, and the DMSO concentration was 1%. The assays were stopped by the addition of non-radioactive SAM (10 ul) to a final concentration of 600 uM, which dilutes the ^3H-SAM to a level where its incorporation into the peptide substrate is no longer detectable. 50 ul of the reaction in the 384-well polypropylene plate was then transferred to a 384-well Flashplate and the biotinylated peptides were allowed to bind to the streptavidin surface for at least 1 hour before being washed three times with 0.1% Tween20 in a Biotek ELx405 plate washer. The plates were then read in a PerkinElmer TopCount plate reader to measure the quantity of ^3H-labeled peptide bound to the Flashplate surface, measured as disintegrations per minute (dpm) or alternatively, referred to as counts per minute (cpm).
[formula] Where dpm=disintegrations per minute, cmpd=signal in assay well, and min and max are the respective minimum and maximum signal controls.
[formula] Where top and bottom are the normally allowed to float, but may be fixed at 100 or 0 respectively in a 3-parameter fit.
Take `CNC(=O)CNCc1cccc(C(=O)NCC(O)CN2CCc3ccccc3C2)c1` (stereo not shown) [Compound 117]: the half-maximal inhibitory concentration (IC50) – broadly, the concentration that gives 50% inhibition – lay within 101 to 1000 nM. The figure for `CN(C)C(=O)CNCc1cccc(C(=O)NCC(O)CN2CCc3ccccc3C2)c1` (stereo not shown) [Compound 118] is < 100 nM; for `O=C(NCC(O)CN1CCc2ccccc2C1)c1cccc(OC2CCNC2)c1` (stereo not shown) [Compound 119] it is < 100 nM. In the case of `CC(=O)N1CCC(Nc2cccc(C(=O)NCC(O)CN3CCc4ccccc4C3)c2)C1` (stereo not shown) [Compound 121], the half-inhibitory concentration (IC50) was < 100 nM. In the case of `CS(=O)(=O)N1CCC(Nc2cccc(C(=O)NCC(O)CN3CCc4ccccc4C3)c2)C1` (stereo not shown) [Compound 122], the IC50 was < 100 nM. Turning to `CN1CCC(Nc2cccc(C(=O)NCC(O)CN3CCc4ccccc4C3)c2)CC1` (stereo not shown) [Compound 123], the IC50 is < 100 nM. In the case of `CC(=O)N1CCC(Nc2cccc(C(=O)NCC(O)CN3CCc4ccccc4C3)c2)CC1` (stereo not shown) [Compound 124] it was < 100 nM.

On to `CS(=O)(=O)N1CCC(Nc2cccc(C(=O)NCC(O)CN3CCc4ccccc4C3)c2)CC1` (stereo not shown) [Compound 125], for which the half-maximal inhibitory concentration (IC50) was < 100 nM.

For `O=C(NCC(O)CN1CCc2ccccc2C1)c1cccc(NC2CCN(CC(F)(F)F)CC2)c1` (stereo not shown) [Compound 126], the IC50 was < 100 nM. Regarding `CC(=O)N1CCC(Nc2ccc(C(=O)NCC(O)CN3CCc4ccccc4C3)cc2)CC1` (stereo not shown) [Compound 127], the IC50 is < 100 nM. The figure for `O=C(NCC(O)CN1CCc2ccccc2C1)c1ccc(NC2CCN(CC(F)(F)F)CC2)cc1` (stereo not shown) [Compound 128] is < 100 nM; for `O=C(NCC(O)CN1CCc2ccccc2C1)c1ccc(NC2CCOC2)cc1` (stereo not shown) [Compound 129] it is < 100 nM. The figure for `O=C(NCC(O)CN1CCc2ccccc2C1)c1cccc(-n2cncn2)c1` (stereo not shown) [Compound 130] is < 100 nM; for `CN1CCC(N(C)c2cccc(C(=O)NCC(O)CN3CCc4ccccc4C3)c2)CC1` (stereo not shown) [Compound 131] it is < 100 nM; for `CN1CCC(N(C)c2cccc(C(=O)NCC(O)CN3CCc4ccccc4C3)c2)C1` (stereo not shown) [Compound 132] it is < 100 nM. In the case of `O=C(NCC(O)CN1CCc2ccccc2C1)c1cccc(OCCN2CCOCC2)c1` (stereo not shown) [Compound 133], the IC50 was < 100 nM. The figure for `CC(C)N1CCC(Oc2cccc(C(=O)NCC(O)CN3CCc4ccccc4C3)c2)C1` (stereo not shown) [Compound 135] is < 100 nM. `CC(=O)N1CCC(Oc2cccc(C(=O)NCC(O)CN3CCc4ccccc4C3)c2)C1` (stereo not shown) [Compound 136]: the half-maximal inhibitory concentration (IC50) was < 100 nM. In the case of `O=C(NCC(O)CN1CCc2ccccc2C1)c1cccc(OC2CCN(CC(F)(F)F)C2)c1` (stereo not shown) [Compound 137] it was < 100 nM; in that of `O=C(NCC(O)CN1CCc2ccccc2C1)c1ccc(NC2CCNCC2)cc1` (stereo not shown) [Compound 138], < 100 nM. On to `CN1CCC(Nc2ccc(C(=O)NCC(O)CN3CCc4ccccc4C3)cc2)CC1` (stereo not shown) [Compound 139], for which the concentration for half-maximal inhibition (IC50) is < 100 nM. For the molecule `CC(C)N1CCC(Nc2ccc(C(=O)NCC(O)CN3CCc4ccccc4C3)cc2)CC1` (stereo not shown) [Compound 140], the IC50 is < 100 nM.

`CS(=O)(=O)N1CCC(Nc2ccc(C(=O)NCC(O)CN3CCc4ccccc4C3)cc2)CC1` (stereo not shown) [Compound 141]: the IC50 is < 100 nM. For `O=C(NCC(O)CN1CCc2ccccc2C1)c1ccc(CN2CCNCC2)cc1` (stereo not shown) [Compound 143], the IC50 was < 100 nM. The figure for `CN(c1ccc(C(=O)NCC(O)CN2CCc3ccccc3C2)cc1)C1CCOC1` (stereo not shown) [Compound 144] is < 100 nM. In the case of `O=C(NCC(O)CN1CCc2ccccc2C1)c1ccc(CN2CCOCC2)cc1` (stereo not shown) [Compound 145] it was < 100 nM.

For `COCCCOc1ccc(C(=O)NCC(O)CN2CCc3ccccc3C2)cc1` (stereo not shown) [Compound 146], the half-maximal inhibitory concentration (IC50) is < 100 nM. In the case of `NCCN1CCN(Cc2cccc(C(=O)NCC(O)CN3CCc4ccccc4C3)c2)CC1` (stereo not shown) [Compound 147] it was < 100 nM; in that of `O=C(NCC(O)CN1CCc2ccccc2C1)c1ccn[nH]1` (stereo not shown) [Compound 148], 101 to 1000 nM; in that of `Cn1ccc(C(=O)NCC(O)CN2CCc3ccccc3C2)n1` (stereo not shown) [Compound 149], 101 to 1000 nM. For the molecule `Cn1nccc1C(=O)NCC(O)CN1CCc2ccccc2C1` (stereo not shown) [Compound 150], the IC50 lay within 101 to 1000 nM.

`O=C(NCC(O)CN1CCc2ccccc2C1)c1cccc(CO)c1` (stereo not shown) [Compound 151]: the half-inhibitory concentration (IC50) is 101 to 1000 nM.

As for `CC1CC(Nc2cccc(C(=O)NC[C@@H](O)CN3CCc4ccccc4C3)c2)CC(C)O1` (stereo partly shown) [Compound 153], the half-inhibitory concentration (IC50) was < 100 nM.

In the case of `O=C(NCC(O)CN1CCc2ccccc2C1)c1cccc(C2CCOC2)c1` (stereo not shown) [Compound 154], the concentration for half-maximal inhibition (IC50) was < 100 nM.

Turning to `COc1ccc2cc(C(=O)NCC(O)CN3CCc4ccccc4C3)ccc2n1` (stereo not shown) [Compound 155], the half-inhibitory concentration (IC50) fell in the range of 101 to 1000 nM. On to `CC(=O)NCCN1CCN(Cc2cccc(C(=O)NCC(O)CN3CCc4ccccc4C3)c2)CC1` (stereo not shown) [Compound 156], for which the 50% inhibitory concentration (IC50) was < 100 nM. In the case of `O=C(O)CN1CCN(Cc2cccc(C(=O)NCC(O)CN3CCc4ccccc4C3)c2)CC1` (stereo not shown) [Compound 157], the IC50 was in the range of 101 to 1000 nM.

For `O=C(O)CCCN1CCN(Cc2cccc(C(=O)NCC(O)CN3CCc4ccccc4C3)c2)CC1` (stereo not shown) [Compound 158], the IC50 is < 100 nM. Take `NC(=O)CCCN1CCN(Cc2cccc(C(=O)NCC(O)CN3CCc4ccccc4C3)c2)CC1` (stereo not shown) [Compound 159]: the half-inhibitory concentration (IC50) is < 100 nM. In the case of `COc1cc(CN2CCN(C)CC2)cc(C(=O)NCC(O)CN2CCc3ccccc3C2)c1` (stereo not shown) [Compound 160] it was < 100 nM; in that of `CC(c1cccc(C(=O)NCC(O)CN2CCc3ccccc3C2)c1)N1CCN(C)CC1` (stereo not shown) [Compound 161], < 100 nM; in that of `CS(=O)(=O)N1CCC(Oc2cccc(C(=O)NCC(O)CN3CCc4ccccc4C3)c2)C1` (stereo not shown) [Compound 162], < 100 nM.

Take `CN1CCN(Cc2ccc(C(=O)NCC(O)CN3CCc4ccccc4C3)cc2)CC1` (stereo not shown) [Compound 163]: the IC50 was < 100 nM.

Consider `O=C(NCC(O)CN1CCc2ccccc2C1)c1cccc(N2CCS(=O)(=O)CC2)c1` (stereo not shown) [Compound 164], for which the IC50 was < 100 nM. For `CCOC(=O)CN1CCN(Cc2cccc(C(=O)NCC(O)CN3CCc4ccccc4C3)c2)CC1` (stereo not shown) [Compound 165], the IC50 was < 100 nM. On to `C[C@H]1CC(Nc2cccc(C(=O)NC[C@H](O)CN3CCc4ccccc4C3)c2)CCO1` (stereo partly shown) [Compound 167], for which the IC50 is < 100 nM.

For `C[C@@H]1CC(Nc2cccc(C(=O)NC[C@H](O)CN3CCc4ccccc4C3)c2)CCO1` (stereo partly shown) [Compound 168], the concentration for half-maximal inhibition (IC50) is < 100 nM. Take `O=C(NCC(O)CN1CCc2ccccc2C1)c1cc(NC2CCOCC2)n[nH]1` (stereo not shown) [Compound 169]: the IC50 was < 100 nM. For the molecule `O=C(NCC(O)CN1CCc2ccccc2C1)c1ncc[nH]1` (stereo not shown) [Compound 170], the IC50 fell in the range of 101 to 1000 nM. With `Cn1ccnc1C(=O)NCC(O)CN1CCc2ccccc2C1` (stereo not shown) [Compound 171], the half-maximal inhibitory concentration (IC50) is < 100 nM. In the case of `NC(=O)CN1CCN(Cc2cccc(C(=O)NCC(O)CN3CCc4ccccc4C3)c2)CC1` (stereo not shown) [Compound 172] it was < 100 nM.

On to `CNC(=O)CN1CCN(Cc2cccc(C(=O)NCC(O)CN3CCc4ccccc4C3)c2)CC1` (stereo not shown) [Compound 173], for which the IC50 was < 100 nM. Turning to `CN(C)C(=O)CN1CCN(Cc2cccc(C(=O)NCC(O)CN3CCc4ccccc4C3)c2)CC1` (stereo not shown) [Compound 174], the IC50 is < 100 nM. As for `CNC(=O)CCCN1CCN(Cc2cccc(C(=O)NCC(O)CN3CCc4ccccc4C3)c2)CC1` (stereo not shown) [Compound 175], the IC50 was < 100 nM. In the case of `O=C(NCC(O)CN1CCc2ccccc2C1)c1ccc(OC2CCNC2)cc1` (stereo not shown) [Compound 176] it was < 100 nM.
